Molecules are shown by their SMILES.

The subject of assay [1] is isolated microspores of Helianthus annuus, 007 Genotype. Description: Callus induction from isolated microspores with different 2,4-D concentrations in induction media II (Example 4.3). It counts as cell-based. As for the experimental part:
Top row: arrows indicate where embryos are located (magnification). Bottom row: corresponding petri dish.
(§1) Solution of microspore density of 80.000 microspores per ml are centrifuged for 10 min at 200 g and supernatant is decanted. Induction media I (see, for example, Table 3.4) is added to the remaining microspores and divided into plastic tubes. Histone deacetylase inhibitor (HDACi) and colchicine are added to each tube and microspore solutions are stored at 26° C. for 2 days. If the HDACi trichostatin A (TSA) is used, it is dissolved in dimethylsulfoxide (DMSO) to a final concentration of between 1M and 10 μM, preferably 100 nM to 10 μM, more preferably 1 μM to 10 μM, depending on the genotype and the plant donor sources. If colchicine is used, it is dissolved in water to a final concentration of between 1 mg and 500 mg, preferably 10 mg to 200 mg, more preferably 50 mg to 100 mg, depending on the genotype and the plant donor sources. The HDACi and the chromosome doubling agent are removed by centrifugation for 10 min, 200 g. Supernatant is decanted, corresponding amount of induction media I is added, and microspores resuspended. Tubes are incubated at 26° C. in the dark for several days.
Thereafter, microspore solutions are centrifuged for 10 min at 200 g and supernatant is decanted. Corresponding amounts of induction media II with different 2,4-D concentrations is added according to the treatments (see, for example, Table 3.5) and the microspore solution is plated in petri dishes and placed at 26° C. for callus induction.
Depending on tissue culture length, and the tissue culture system, at least one antibiotic can be added to Incubation Medium II, such as carbenicillin, penicillin or timentin. One to two weeks after isolation, the first microspore nuclear division can be observed (DAPI staining). Callus structures can be seen by eye after approximately three weeks after isolation.

Assay [2] concerns sunflower microspore derived calluses. Description: Plant regeneration: shoots regenerated per callus unit after callus induction with auxin analogs (Example 4.2). The following applies: auxin analog used during callus induction (FIG. 8B). The class given is cell-based, Helianthus annuus. As for the experimental part: Thereafter, microspore solutions are centrifuged for 10 min at 200 g and supernatant is decanted. Corresponding amounts of induction media II with different auxin and auxin analogs is added according to the treatments (see, for example, Table 3.3) and the microspore solution is plated in petri dishes and placed at […] for callus induction. Abbreviations used in Table 3.3: 3.5ME=3,5-dimethylphenoxyacetic acid; PHAA=Phenoxyacetic acid; 4-CPA or 4CIPA=p-Chlorophenoxyacetic acid.
Callus is removed from liquid media and transferred to regeneration media (see, for example, Table 4) with 1 mg/L BAP and grown at 26° C. in the light until plant regeneration is observed, approximately 2 weeks after transfer (FIG. 4)

Assay [3] concerns isolated microspores of Helianthus annuus. Description: Callus induction from isolated microspores with auxin analogs in induction media II (Example 4.2). It counts as cell-based. The following applies: 1 mg/L (FIG. 8A), control with 2,4-D. As for the experimental part: as §1, with “example, Table 3.2) is added” for “example, Table 3.4) is added”, “of between 1 nM and 10” for “of between 1M and 10”, “mg and 300 mg, preferably” for “mg and 500 mg, preferably”, “donor sources. Another antimitotic agent, e.g., oryzalin and/or trifluralin, or any other chromosome doubling agent may be used as well. The HDACi” for “donor sources. The HDACi”, “microspores resuspended. Usually, an auxin or a (synthetic) analog thereof will usually be applied in a concentration of about 0.05 to about 3 mg/L. Tubes are” for “microspores resuspended. Tubes are”, “several days. […]” for “several days.”

Assay [4] relates to microspore derived sunflower shoots. The assay can be described thus: Plant rooting of microspore derived shoots in rooting media (Example 5.2). The class given is in vivo, Helianthus annuus. The note with it: rooting media (MS), 24° C. in the light, approximately 2 weeks after transfer; auxin 0.5 mg/L. As for the experimental part: Shoots are transferred to growing/rooting medium (see, for example, Table 5) with or without one auxin (in the example PAA (phenylacetic acid) or IBA were used) and grown at 24° C. in the light until root formation is observed, approximately 2 weeks after transfer (FIG. 10).

With `O=C(O)COc1ccc(Cl)cc1Cl` [2,4-D, 2,4-Dichlorophenoxyacetic acid], the “Generation of microspore-derived embryos” value in assay [1] (0.5, 0.2, 0.1 mg/L 2,4-D and Ctrl 1 mg/L 2,4-D) is recorded as “observed in all treatments”. Besides, the “Induction of microspore division and callus formation” value in assay [1] (0.5, 0.2, 0.1 mg/L 2,4-D and Ctrl 1 mg/L in induction media II, 007 Genotype (FIG. 9)) was “able to induce microspore division and callus formation”. Also, the “Callus formation of the treatments compared with control” value in assay [1] (0.5, 0.2, 0.1 mg/L 2,4-D versus Ctrl 1 mg/L 2,4-D) is recorded as “did not decreased or enhanced callus formation”. Regarding `Cc1cc(C)cc(OCC(=O)O)c1` [3.5ME, 3,5-dimethylphenoxyacetic acid], the “Regeneration: number of shoots regenerated per callus unit in comparison to control” value in assay [2] is “tendency to increase regeneration”. Regarding `O=C(O)COc1ccc(Cl)cc1` [4CIPA/4-CPA, p-Chlorophenoxyacetic acid], in assay [3], the “Callus quantity (callus number) in comparison to control” value is “tendency to increase callus quantity”. For the same compound, the “Regeneration: number of shoots regenerated per callus unit in comparison to control” value in assay [2] is reported as “tendency to increase regeneration”. As to `O=C(O)CCCc1c[nH]c2ccccc12` [IBA, indole-3-butyric acid], in assay [4], the “Cultivated plants showing root formation” value turned out to be 68%.

Values taken from patent publication US20250268165A1, “METHOD FOR PRODUCING HAPLOID AND DOUBLED HAPLOID SUNFLOWER PLANTS BY MICROSPORE CULTURE” (KWS SAAT SE & Co. KGaA, priority 2022, published 2025).
